System: MDA-MB-231
Assay: Anti-proliferative effect in MDA-MB-231 (CellTiter-Glo)
Format: cell-based, human
Conditions: MDA-MB-231, 3 days
Protocol: This assay studied the inhibitory effect of the compounds on cell proliferation by detecting the effect of the test compounds on the in vitro activity of tumor cells MV4-11 and MDA-MB-231.
The tumor cell lines were cultured in an incubator at 37° C., 5% CO2 or 0% CO2according to the above culture conditions. The cells were periodically passaged, and cells in logarithmic growth phase were taken for plating. • 2. Cell plating • (1). Cells were stained with trypan blue and viable cells were counted. • (2).
• (3). 90 μL of cell suspension was added to each well of the culture plate, and culture medium without cells was added to the blank control well. • (4). The plate was incubated overnight in an incubator at 37° C., 5% CO2 or 0% CO2, and 100% relative humidity. • 3. Preparation of a compound storage plate
Preparation of a 400× compound storage plate: The compounds were diluted with DMSO in a gradient from the highest concentration to the lowest concentration. The plates were prepared freshly at each time for use. • 4. Preparation of 10× compound working solution and treatment of cells with compounds • (1). Preparation of 10× compound working solution: compound or DMSO was added, and the well content was mixed to uniform by aspiration and expelling with pipette. 78 μL of cell culture medium was added to a 96-well plate with a V-shaped bottom. 2 μL of the compound from the 400× compound storage plate was added to the cell culture medium in the 96-well plate. 2 μL of DMSO was added to the vehicle control and the blank control. After adding compound or DMSO, the well content was mixed to uniform by aspiration and expelling with pipette. • (2). Dosing: 10 μL of 10× compound working solution was added to the cell culture plate. 10 μL of DMSO-cell culture mix solution was added to the vehicle control and blank control. • (3). The 96-well cell plate was placed back into the incubator and cultured for 3 days. • 5. CellTiter-Glo luminescence cell viability detection
The following steps were performed according to the instruction of Promega CellTiter-Glo luminescence cell viability detection kit (Promega-G7573). • (1). The CellTiter-Glo buffer was thawed and allowed to stand to reach room temperature; • (2). CellTiter-Glo substrate was allowed to stand to reach room temperature; • (3). 10 mL of CellTiter-Glo buffer was added to CellTiter-Glo substrate in a bottle to dissolve the substrate to formulate CellTiter-Glo working solution; • (4). The working solution was vortexed slowly for fully dissolution; • (5). The cell culture plates were taken out and allowed to stand for 30 minutes to equilibrate to room temperature; • (6). 50 μL (equal to half the volume of cell culture solution in each well) of Cell Titer-Glo working solution was added into each well. The cell plate was wrapped with aluminum foil to protect the cell plate from light; • (7). The culture plates were shaken on an orbital shaker for 2 minutes to induce cell lysis; • (8). The culture plates were left at room temperature for 10 minutes to stabilize the luminescence signal; • (9). The luminous signal was detected on the 2104 En Vision plate reader. • 6. Data analysis
The following formula was used to calculate the inhibition rate (IR) of the test compounds: IR (%)=(RLU of the vehicle control−RLU of the compound)/(RLU of the vehicle control−RLU of the blank control)*100%. The inhibition rates of the compounds at different concentrations were calculated in Excel, and then GraphPad Prism software was used to graph the inhibition curves and calculate the relevant parameters, including the minimum inhibition rate, maximum inhibition rate and IC50.

IC50 (Homo sapiens, 72 h): 4.7 nM
Compound: COCCOc1cc(NC(=O)NCc2ccc3c(C4CCC(=O)NC4=O)coc3c2)cc(Cl)c1C (centres unmarked) [WX005]
Max. IR (maximum inhibition rate): 80.7%
